Reference: patent US20240279214A1, “ALPHA4 BETA7 INEGRIN ANTAGONISTS AND USES THEREOF” (XinThera, Inc., priority 2022, published 2024)

Molecular target: T1, a4b7 integrin interaction with MadCAM-1 (Homo sapiens, UniProt P13612+P26010)
T1 construct: capture of a4b7 integrin expressing cells, RPMI8866; endogenous in cells; host or cells: RPMI8866
T1 sequence (P13612 34-1032): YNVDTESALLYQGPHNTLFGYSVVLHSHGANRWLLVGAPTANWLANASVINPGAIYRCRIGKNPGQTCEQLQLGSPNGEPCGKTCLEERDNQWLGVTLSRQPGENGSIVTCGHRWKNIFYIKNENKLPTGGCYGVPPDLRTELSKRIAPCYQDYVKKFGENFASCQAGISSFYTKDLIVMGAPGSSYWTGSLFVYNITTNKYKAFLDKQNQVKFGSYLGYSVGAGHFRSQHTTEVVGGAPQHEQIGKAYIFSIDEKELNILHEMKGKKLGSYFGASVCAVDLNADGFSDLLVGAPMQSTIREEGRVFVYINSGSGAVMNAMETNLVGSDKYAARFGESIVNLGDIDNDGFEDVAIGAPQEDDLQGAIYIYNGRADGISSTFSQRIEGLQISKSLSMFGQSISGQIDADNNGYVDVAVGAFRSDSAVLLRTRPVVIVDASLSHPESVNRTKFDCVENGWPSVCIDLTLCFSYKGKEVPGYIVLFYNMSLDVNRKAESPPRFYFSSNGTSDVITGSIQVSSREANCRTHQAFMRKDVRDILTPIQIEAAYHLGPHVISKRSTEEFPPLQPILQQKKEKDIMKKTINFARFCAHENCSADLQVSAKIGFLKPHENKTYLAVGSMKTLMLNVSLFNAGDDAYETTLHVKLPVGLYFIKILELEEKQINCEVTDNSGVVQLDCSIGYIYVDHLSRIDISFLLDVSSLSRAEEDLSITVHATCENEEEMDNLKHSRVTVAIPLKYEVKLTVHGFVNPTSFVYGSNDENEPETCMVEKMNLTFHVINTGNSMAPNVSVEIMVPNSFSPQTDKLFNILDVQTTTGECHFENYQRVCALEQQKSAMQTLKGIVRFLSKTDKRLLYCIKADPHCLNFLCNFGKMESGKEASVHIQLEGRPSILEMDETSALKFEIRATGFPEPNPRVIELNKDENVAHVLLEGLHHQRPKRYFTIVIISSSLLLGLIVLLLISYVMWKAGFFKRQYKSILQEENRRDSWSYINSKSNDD
T1 sequence (P26010 20-798): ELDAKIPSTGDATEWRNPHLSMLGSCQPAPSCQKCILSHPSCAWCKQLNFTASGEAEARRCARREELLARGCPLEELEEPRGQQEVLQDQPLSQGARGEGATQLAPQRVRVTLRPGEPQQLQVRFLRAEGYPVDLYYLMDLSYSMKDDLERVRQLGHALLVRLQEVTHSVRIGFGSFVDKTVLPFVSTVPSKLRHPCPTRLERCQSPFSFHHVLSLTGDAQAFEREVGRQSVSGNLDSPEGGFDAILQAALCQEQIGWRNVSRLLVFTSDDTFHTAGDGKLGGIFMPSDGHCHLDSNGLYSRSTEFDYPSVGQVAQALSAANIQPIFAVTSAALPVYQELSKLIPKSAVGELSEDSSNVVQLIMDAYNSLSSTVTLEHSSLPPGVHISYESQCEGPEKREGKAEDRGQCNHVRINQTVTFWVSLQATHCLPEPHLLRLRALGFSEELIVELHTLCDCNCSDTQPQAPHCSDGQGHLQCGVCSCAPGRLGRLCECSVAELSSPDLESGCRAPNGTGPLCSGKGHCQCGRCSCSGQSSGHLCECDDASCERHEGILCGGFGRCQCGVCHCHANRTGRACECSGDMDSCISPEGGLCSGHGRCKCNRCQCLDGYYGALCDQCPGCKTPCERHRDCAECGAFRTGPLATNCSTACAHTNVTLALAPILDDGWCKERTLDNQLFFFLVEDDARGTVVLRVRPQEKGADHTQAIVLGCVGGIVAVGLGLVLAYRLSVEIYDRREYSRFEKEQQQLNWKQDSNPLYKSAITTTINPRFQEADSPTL
Test: a4b7 Cell Capture Assay (RPMI8866 cells on MAdCAM-1 Fc coated plates)
Type: cell-based
Details: 50% human serum, 1 mM MgCl2, 1 hour incubation, CellTiter-Glo luminescence, read-out: a4B7 cell capture assay RMPI8866-MadCAM EC50
Procedure: The potency of inhibitors in preventing a4b7 integrin interaction with MadCAM-1 was measured by monitoring the capture of a4b7 integrin expressing cells, RPMI8866, on recombinant human MAdCAM-1 Fc chimera protein-coated plates. The protein was a fusion between human MAdCAM-1 (Met1-Gln333, Accession #AAY82472) and human IgG1 (Pro100-Lys330)] (R&D Systems, Catalog #6056-MC). 96-well plates (Thermofisher, Catalog #136102) were coated with the recombinant protein by dispensing 100 μL (1.0 μg/mL) per well. After a quick spin to settle down the coating solution using a plate centrifuge, plates were incubated overnight at 4° C. in a moisture chamber. On Day 2, the plates were washed with PBS using a Bluecatbio Blue®Washer (GentleSpin wash, 3 cycles, pressure=1, volume 150 uL). Blocking solution (1.0% BSA in PBS, Sigma, Catalog #A7979) was then added at 200 uL/well, and the plates were quickly spun to settle down blocking buffer and incubated in cell culture incubator at 37° C. and 5% CO2 for 1 hour. The plates were then washed with 0.1% BSA in PBS using a Bluecatbio Blue®Washer (GentleSpin wash, 3 cycles, pressure=1, volume 150 uL). RPMI8866 cells suspended in assay medium (1 mM MgCl2 25 mM HEPES and 50% human serum, Sigma, Catalog #H4522) at a density of 1.0×10^6 cells/mL were added at 100 uL/well. Each compound evaluated was prepared as a DMSO stock solution. Test compounds were evaluated with a 9-point serial dilution curve (1000, 333.3, 111.1, 55.6, 27.8, 13.9, 6.9, 2.3, and 0.77 nM)) and were added to the plates using a Tecan D.30e Digita dispenser, the dispensed stock is 100 nL and the final DMSO concentration is 0.1%. Potent compounds were re-evaluated at a new 9-point serial dilution curve (100, 33.3, 11.1, 5.6, 2.8, 1.4, 0.69, 0.23, and 0.08 nM). Each titration curves were performed in triplicate on the same plate, and most of compounds were retested in different dates multiple times. The plates were shaken at 300 rpm on orbital plate shaker for 3 minutes to mix the cells and compounds, quickly spun to settle the cells and solution, and incubated in cell culture incubator at 37° C. and 5% CO2. After 1 hour incubation, the unbound cells were washed away with RPMI1640 medium supplemented with 1 mM MgCl2 and 1% BSA) (wash buffer) using a Bluecatbio Blue®Washer (MagbeadsSpin wash, 1 cycle, pressure 1, volume=150 uL). After wash buffer removal, A mixture of wash buffer/CellTiter-Glo® Reagent (Pormega, catalog #G7573) at 1:1 (V/V) was added at volume of 100 uL to each well. The plates were placed in a chamber at 25° C. and incubated for 30 minutes. Luminescence was recorded using a Envision plate reader 2105 according to CellTiter-Glo protocol.
The mean luminescence signals from negative control wells without MadCAM-1 coating and compound treatment (cells only) was defined as 100% binding inhibition, and the mean luminescence signals from positive control wells with MadCAM-1 coating but without compound treatment (MadCAM-1 and cells only) was defined as 0% binding inhibition. The luminescence signals from other compound treated wells were normalized in percentage scale accordingly. The normalized mean % inhibition data were plotted against logarithmic compound concentration in nanomolar and were fitted with 4-parameter logistic model to obtain IC50 for each compound.

EC50	SMILES
1.3 nM	Cc1cc2cc(c1F)[C@H](CC(=O)O)NC(=O)[C@@H](n1cc(CCN3CC(F)C3)c(C(F)(F)F)cc1=O)c1cc(ccc1F)Oc1cc(F)cc(C)c1-2 (relative stereo) [Example 26, [(14R*,17S)-5,12,19-trifluoro-14-{5-[2-(3-fluoroazetidin-1-yl)ethyl]-2-oxo-4-(trifluoromethyl)pyridin-1-yl}-3,20-dimethyl-15-oxo-8-oxa-16-azatetracyclo[16.3.1.1^{9,13}.0^{2,7}]tricosa-1(22),2(7),3,5,9,11,13(23),18,20-nonaen-17-yl]acetic acid]
3.7 nM	Cc1cc(C)c2c(c1)Oc1ccc(F)c(c1)[C@H](n1cc(CCN3CC(F)C3)c(C(F)(F)F)cc1=O)C(=O)N[C@@H](CC(=O)O)c1cc-2cc(C)c1F (relative stereo) [Example 27, [(14R*,17S)-12,19-difluoro-14-{5-[2-(3-fluoroazetidin-1-yl)ethyl]-2-oxo-4-(trifluoromethyl)pyridin-1-yl}-3,5,20-trimethyl-15-oxo-8-oxa-16-azatetracyclo[16.3.1.1^{9,13}.0^{2,7}]tricosa-1(22),2(7),3,5,9,11,13(23),18,20-nonaen-17-yl]acetic acid]
19 nM	Cc1cc2cc(c1F)[C@H](CC(=O)O)NC(=O)[C@@H](n1cc(CCN3CC(F)C3)c(C(F)(F)F)cc1=O)c1cc(ccc1F)Oc1cccc(C(F)(F)F)c1-2 (relative stereo) [Example 28, [(14R*,17S)-12,19-difluoro-14-{5-[2-(3-fluoroazetidin-1-yl)ethyl]-2-oxo-4-(trifluoromethyl)pyridin-1-yl}-20-methyl-15-oxo-3-(trifluoromethyl)-8-oxa-16-azatetracyclo[16.3.1.1^{9,13}.0^{2,7}]tricosa-1(22),2(7),3,5,9,11,13(23),18,20-nonaen-17-yl]acetic acid]
0.07 nM	Cc1cc2cc(c1F)[C@H](CC(=O)O)NC(=O)[C@@H](n1cc(CCN(C)C)c(C(F)(F)F)cc1=O)c1cc(ccc1F)Oc1cccc(C)c1-2 (relative stereo) [Example 29, [(14R*,17S)-14-{5-[2-(dimethylamino)ethyl]-2-oxo-4-(trifluoromethyl)pyridin-1-yl}-12,19-difluoro-3,20-dimethyl-15-oxo-8-oxa-16-azatetracyclo[16.3.1.1^{9,13}.0^{2,7}]tricosa-1(22),2(7),3,5,9,11,13(23),18,20-nonaen-17-yl]acetic acid]
2.6 nM	Cc1cc2cc(c1F)[C@H](CC(=O)O)NC(=O)[C@@H](n1cc(CCN3CC(F)C3)c(C(F)(F)F)cc1=O)c1cc(ccc1F)Oc1ccc(F)c(C)c1-2 (relative stereo) [Example 30, [(14R*,17S)-4,12,19-trifluoro-14-{5-[2-(3-fluoroazetidin-1-yl)ethyl]-2-oxo-4-(trifluoromethyl)pyridin-1-yl}-3,20-dimethyl-15-oxo-8-oxa-16-azatetracyclo[16.3.1.1^{9,13}.0^{2,7}]tricosa-1(22),2(7),3,5,9,11,13(23),18,20-nonaen-17-yl]acetic acid]
1.9 nM	Cc1cccc2c1-c1cc(F)c(F)c(c1)[C@H](CC(=O)O)NC(=O)[C@@H](n1cc(CCN3CC(F)C3)c(C(F)(F)F)cc1=O)c1cc(ccc1F)O2 (relative stereo) [Example 31, [(14R*,17S)-12,19,20-trifluoro-14-{5-[2-(3-fluoroazetidin-1-yl)ethyl]-2-oxo-4-(trifluoromethyl)pyridin-1-yl}-3-methyl-15-oxo-8-oxa-16-azatetracyclo[16.3.1.1^{9,13}.0^{2,7}]tricosa-1(22),2(7),3,5,9,11,13(23),18,20-nonaen-17-yl]acetic acid]
50 nM	Cc1ccc2c(c1C)-c1cc(C)c(F)c(c1)[C@H](CC(=O)O)NC(=O)[C@@H](n1cc(CCN3CC(F)C3)c(C(F)(F)F)cc1=O)c1cc(ccc1F)O2 (relative stereo) [Example 33, [(14R*,17S)-12,19-difluoro-14-{5-[2-(3-fluoroazetidin-1-yl)ethyl]-2-oxo-4-(trifluoromethyl)pyridin-1-yl}-3,4,20-trimethyl-15-oxo-8-oxa-16-azatetracyclo[16.3.1.1^{9,13}.0^{2,7}]tricosa-1(22),2(7),3,5,9,11,13(23),18,20-nonaen-17-yl]acetic acid]
